According to patent publication US7704995B2 (Exelixis, Inc., priority 2003, dated 2010):

Target: T1, Chk1 (Homo sapiens, UniProt O14757)
T1 construct: purchased Upstate Biotechnology
T1 sequence (O14757 1-476): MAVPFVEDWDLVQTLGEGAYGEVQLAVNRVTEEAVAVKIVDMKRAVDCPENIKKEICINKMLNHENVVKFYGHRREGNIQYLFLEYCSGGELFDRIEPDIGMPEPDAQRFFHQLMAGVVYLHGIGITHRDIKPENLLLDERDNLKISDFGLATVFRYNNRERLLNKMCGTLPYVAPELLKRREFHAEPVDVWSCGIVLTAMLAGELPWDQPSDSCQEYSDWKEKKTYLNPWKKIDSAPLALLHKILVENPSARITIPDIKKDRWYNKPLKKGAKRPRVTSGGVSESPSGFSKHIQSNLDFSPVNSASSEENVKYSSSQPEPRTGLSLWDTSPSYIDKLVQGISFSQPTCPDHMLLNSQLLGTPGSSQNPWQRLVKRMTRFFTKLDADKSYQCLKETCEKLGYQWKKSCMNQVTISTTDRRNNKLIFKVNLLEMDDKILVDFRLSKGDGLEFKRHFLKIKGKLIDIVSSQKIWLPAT
Assay: Chk1 kinase assay: incorporation of γ-33P ATP into immobilized myelin basic protein
Type: biochemical
Settings: Table 11; Chk1 only; read-out: Chk1 IC50
In short: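 Immobilized-MBP radiometric kinase assay, room temperature for 1 h; ATP 10 μM (Chk1, 10 nM enzyme) or 30 μM (Chk2, 20 nM enzyme) with 33P tracer. Values are IC50s, with Ki derived from them.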

Structure (SMILES) | IC50
CNC(=O)c1nc(-c2cccc(CNC3CC(C)c4c(F)ccc(F)c43)c2)cnc1N (centres unmarked) [Example 459, 3-amino-6-(3-{[(4,7-difluoro-3-methyl-2,3-dihydro-1H-inden-1-yl)amino]methyl}phenyl)-N-methylpyrazine-2-carboxamide] | 50 to 1000 nM
CNC(=O)c1nc(-c2cccc(CN[C@H]3c4ccccc4C[C@H]3OC)c2)cnc1N [Example 460, 3-amino-N-methyl-6-[3-({[(1S,2R)-2-(methyloxy)-2,3-dihydro-1H-inden-1-yl]amino}methyl)phenyl]pyrazine-2-carboxamide] | 50 to 1000 nM
CNC(=O)c1nc(-c2cccc(CNC3CCc4cc(Br)ccc43)c2)cnc1N (centres unmarked) [Example 461, 3-amino-6-(3-{[(5-bromo-2,3-dihydro-1H-inden-1-yl)amino]methyl}phenyl)-N-methylpyrazine-2-carboxamide] | 50 to 1000 nM
CNC(=O)c1nc(-c2cccc(CN[C@H]3CCc4cc(Br)ccc4C3)c2)cnc1N [Example 462, 3-amino-6-[3-({[(2S)-6-bromo-1,2,3,4-tetrahydronaphthalen-2-yl]amino}methyl)phenyl]-N-methylpyrazine-2-carboxamide] | < 50 nM
CNC(=O)c1nc(-c2cccc(CN[C@@H]3CCc4cc(Br)ccc4C3)c2)cnc1N [Example 463, 3-amino-6-[3-({[(2R)-6-bromo-1,2,3,4-tetrahydronaphthalen-2-yl]amino}methyl)phenyl]-N-methylpyrazine-2-carboxamide] | 50 to 1000 nM
CNC(=O)c1nc(-c2cccc(CNC3CCc4cc(F)ccc43)c2)cnc1N (centres unmarked) [Example 464, 3-amino-6-(3-{[(5-fluoro-2,3-dihydro-1H-inden-1-yl)amino]methyl}phenyl)-N-methylpyrazine-2-carboxamide] | 50 to 1000 nM
CNC(=O)c1nc(-c2cccc(CN[C@H]3Cc4ccc(Br)cc4C3)c2)cnc1N [Example 465, 3-amino-6-[3-({[(2S)-5-bromo-2,3-dihydro-1H-inden-2-yl]amino}methyl)phenyl]-N-methylpyrazine-2-carboxamide] | < 50 nM
CNC(=O)c1nc(-c2cccc(CNC3Cc4cccc(F)c4C3)c2)cnc1N (centres unmarked) [Example 466, 3-amino-6-(3-{[(4-fluoro-2,3-dihydro-1H-inden-2-yl)amino]methyl}phenyl)-N-methylpyrazine-2-carboxamide] | < 50 nM
CNC(=O)c1nc(-c2cccc(CNC3Cc4c(F)cccc4C3O)c2)cnc1N (centres unmarked) [Example 467, 3-amino-6-(3-{[(4-fluoro-1-hydroxy-2,3-dihydro-1H-inden-2-yl)amino]methyl}phenyl)-N-methylpyrazine-2-carboxamide] | 50 to 1000 nM
CNC(=O)c1nc(-c2cccc(CN[C@@H]3c4ccccc4C[C@@H]3OC)c2)cnc1N [Example 468, 3-amino-N-methyl-6-[3-({[(1R,2S)-2-(methyloxy)-2,3-dihydro-1H-inden-1-yl]amino}methyl)phenyl]pyrazine-2-carboxamide] | 50 to 1000 nM
CNC(=O)c1nc(-c2cccc(CNC3CCc4c(F)ccc(F)c43)c2)cnc1N (centres unmarked) [Example 469, 3-amino-6-(3-{[(4,7-difluoro-2,3-dihydro-1H-inden-1-yl)amino]methyl}phenyl)-N-methylpyrazine-2-carboxamide] | 50 to 1000 nM
CNC(=O)c1nc(-c2cccc(CNC3CCc4c(F)cc(Br)cc43)c2)cnc1N (centres unmarked) [Example 470, 3-amino-6-(3-{[(6-bromo-4-fluoro-2,3-dihydro-1H-inden-1-yl)amino]methyl}phenyl)-N-methylpyrazine-2-carboxamide] | 50 to 1000 nM
CNC(=O)c1nc(-c2cccc(CNC3CC(=O)c4ccccc43)c2)cnc1N (centres unmarked) [Example 471, 3-amino-N-methyl-6-(3-{[(3-oxo-2,3-dihydro-1H-inden-1-yl)amino]methyl}phenyl)pyrazine-2-carboxamide] | 50 to 1000 nM
CNC(=O)c1nc(-c2cccc(CNC3CCc4cc(-c5ccco5)ccc43)c2)cnc1N (centres unmarked) [Example 472, 3-amino-6-(3-{[(5-furan-2-yl-2,3-dihydro-1H-inden-1-yl)amino]methyl}phenyl)-N-methylpyrazine-2-carboxamide] | < 50 nM
CNC(=O)c1nc(-c2cccc(CNC3CCc4c(F)cccc43)c2)cnc1N (centres unmarked) [Example 473, 3-amino-6-(3-{[(4-fluoro-2,3-dihydro-1H-inden-1-yl)amino]methyl}phenyl)-N-methylpyrazine-2-carboxamide] | 50 to 1000 nM
CNC(=O)c1nc(-c2cccc(CNC3CCc4c(F)cc(F)cc43)c2)cnc1N (centres unmarked) [Example 474, 3-amino-6-(3-{[(4,6-difluoro-2,3-dihydro-1H-inden-1-yl)amino]methyl}phenyl)-N-methylpyrazine-2-carboxamide] | 50 to 1000 nM

Structure (SMILES) | IC50
CNC(=O)c1nc(-c2cccc(CNC3CCc4ccc(F)cc43)c2)cnc1N (centres unmarked) [Example 475, 3-amino-6-(3-{[(6-fluoro-2,3-dihydro-1H-inden-1-yl)amino]methyl}phenyl)-N-methylpyrazine-2-carboxamide] | < 50 nM
CNC(=O)c1nc(-c2cccc(CNC3CCc4cc(F)c(F)cc43)c2)cnc1N (centres unmarked) [Example 476, 3-amino-6-(3-{[(5,6-difluoro-2,3-dihydro-1H-inden-1-yl)amino]methyl}phenyl)-N-methylpyrazine-2-carboxamide] | 50 to 1000 nM
CNC(=O)c1nc(-c2cccc(CNC3CCc4cc(Cl)ccc43)c2)cnc1N (centres unmarked) [Example 477, 3-amino-6-(3-{[(5-chloro-2,3-dihydro-1H-inden-1-yl)amino]methyl}phenyl)-N-methylpyrazine-2-carboxamide] | < 50 nM
CNC(=O)c1nc(-c2cccc(CNC3CCc4cc(-c5cccs5)ccc43)c2)cnc1N (centres unmarked) [Example 478, 3-amino-N-methyl-6-[3-({[5-(2-thienyl)-2,3-dihydro-1H-inden-1-yl]amino}methyl)phenyl]pyrazine-2-carboxamide] | < 50 nM
CNC(=O)c1nc(-c2cccc(CNC3CCc4cc(F)cc(F)c43)c2)cnc1N (centres unmarked) [Example 479, 3-amino-6-(3-{[(5,7-difluoro-2,3-dihydro-1H-inden-1-yl)amino]methyl}phenyl)-N-methylpyrazine-2-carboxamide] | 50 to 1000 nM
CNC(=O)c1nc(-c2cccc(CNC3CCc4cc(-c5ccoc5)ccc43)c2)cnc1N (centres unmarked) [Example 480, 3-amino-6-(3-{[(5-furan-3-yl-2,3-dihydro-1H-inden-1-yl)amino]methyl}phenyl)-N-methylpyrazine-2-carboxamide] | < 50 nM
CNC(=O)c1nc(-c2cccc(CNC3CCc4cc(-c5ccsc5)ccc43)c2)cnc1N (centres unmarked) [Example 481, 3-amino-N-methyl-6-[3-({[5-(3-thienyl)-2,3-dihydro-1H-inden-1-yl]amino}methyl)phenyl]pyrazine-2-carboxamide] | < 50 nM
CNC(=O)c1nc(-c2cccc(CN[C@H]3CCc4c(F)cccc43)c2)cnc1N [Example 482, 3-amino-6-[3-({[(1S)-4-fluoro-2,3-dihydro-1H-inden-1-yl]amino}methyl)phenyl]-N-methylpyrazine-2-carboxamide] | < 50 nM
CNC(=O)c1nc(-c2cccc(CN[C@H]3CCc4cc(F)cc(F)c43)c2)cnc1N [Example 483, 3-amino-6-[3-({[(1S)-5,7-difluoro-2,3-dihydro-1H-inden-1-yl]amino}methyl)phenyl]-N-methylpyrazine-2-carboxamide] | 50 to 1000 nM
CNC(=O)c1nc(-c2cccc(CNC3CCc4c(F)ccc(Br)c43)c2)cnc1N (centres unmarked) [Example 484, 3-amino-6-(3-{[(7-bromo-4-fluoro-2,3-dihydro-1H-inden-1-yl)amino]methyl}phenyl)-N-methylpyrazine-2-carboxamide] | 50 to 1000 nM
CNC(=O)c1nc(-c2cccc(CNC3CCc4ccc(Cl)cc43)c2)cnc1N (centres unmarked) [Example 485, 3-amino-6-(3-{[(6-chloro-2,3-dihydro-1H-inden-1-yl)amino]methyl}phenyl)-N-methylpyrazine-2-carboxamide] | 50 to 1000 nM
CNC(=O)c1nc(-c2cccc(CNC3CCc4c(Cl)cc(Cl)cc43)c2)cnc1N (centres unmarked) [Example 486, 3-amino-6-(3-{[(4,6-dichloro-2,3-dihydro-1H-inden-1-yl)amino]methyl}phenyl)-N-methylpyrazine-2-carboxamide] | 50 to 1000 nM
CNC(=O)c1nc(-c2cccc(CNC3CCc4c(Cl)cccc43)c2)cnc1N (centres unmarked) [Example 487, 3-amino-6-(3-{[(4-chloro-2,3-dihydro-1H-inden-1-yl)amino]methyl}phenyl)-N-methylpyrazine-2-carboxamide] | < 50 nM
CCNC(=O)c1nc(-c2cccc(CN[C@H]3CCc4ccccc43)c2)cnc1N [Example 488, 3-amino-6-(3-{[(1S)-2,3-dihydro-1H-inden-1-ylamino]methyl}phenyl)-N-ethylpyrazine-2-carboxamide] | 50 to 1000 nM
CCNC(=O)c1nc(-c2cccc(CNC3CCc4cc(F)cc(F)c43)c2)cnc1N (centres unmarked) [Example 489, 3-amino-6-(3-{[(5,7-difluoro-2,3-dihydro-1H-inden-1-yl)amino]methyl}phenyl)-N-ethylpyrazine-2-carboxamide] | 50 to 1000 nM
CNC(=O)c1nc(-c2cccc(CN[C@H]3CCc4cc(-c5cccs5)ccc43)c2)cnc1N [Example 490, 3-amino-N-methyl-6-[3-({[(1S)-5-(2-thienyl)-2,3-dihydro-1H-inden-1-yl]amino}methyl)phenyl]pyrazine-2-carboxamide] | < 50 nM
